Each block holds one compound with its values, some of them ahead of it.
Experiments:
SU/SR cells [1] = assay: Xenograft ALL mouse model (SU/SR); format: in vivo; conditions: NOG mice with SU/SR
[2] = system: medulloblastoma cell line DAOY; assay: cells; conditions: Homo sapiens, 48 h
[3] = system: p53-mutated colon cancer cell line HT29; conditions: HT29, 72 hours
LNCaP cells = assay: cells; conditions: Homo sapiens, 48 h, read-out: IC50 (μM) in LNCaP cells
DU-145 cells = assay: cells; conditions: Homo sapiens, DU-145, 48 h, read-out: IC50 (μM) in DU-145 cells
A549 cells = assay: Xenograft lung cancer mouse model (A549); format: in vivo
[4] = system: RUNX family (RUNX1, RUNX2 and RUNX3); assay: Gene expression microarray in MV4-11 cells vs RUNX family knockdown; format: cell-based, human; conditions: 1 μM, 6 hours, top 500 up- and down-regulated genes
SU-Ph2 cells = assay: Cell growth inhibition assay, SU-Ph2 cells; format: cell-based, human; conditions: SU-Ph2, 48 hours
[5] = system: BCL11A, TRIM24, p53, p21, BAX, PUMA and MDM2; assay: qRT-PCR of p53 suppressors and p53 target genes in MV4-11 cells; format: cell-based, human; conditions: 1 μM, 6 hours
Method: A total RNA was isolated with RNeasy mini kit (Qiagen) and reverse transcribed with Reverse script kit (TOYOBO) to generate cDNA. Real-time quantitative polymerase chain reaction (PCR) was carried out with 7500 Real-Time PCR System (Applied Biosystems) according to the manufacturer's instructions. Results were normalized to GAPDH levels. Relative expression levels were calculated using the 2-ΔΔCt method.

IL3, CSF2 and CSF2RB = assay: qRT-PCR of RUNX1 target genes in MV4-11 cells; format: cell-based, human; conditions: 5 μM, 6 hours
[6] = system: AML cell lines expressing functional p53 (MV4-11, OCI-AML2, OCI-AML3 and MOLM-13); assay: Growth inhibition assay of AML cell lines expressing functional p53; format: cell-based, human; conditions: 48 hours; at between nanomolar to low micromolar levels
Method: Growth inhibition of some AML cell lines expressing functional p53 (MV4-11, OCI-AML2, OCI-AML3 and MOLM-13) by PI polyamide conjugates at different concentrations was tested. Briefly, the cells were placed at a density of 1×10^5 cells/mL. Different concentrations of a PI polyamide conjugate (Chb-M′ or Chb-50) were added to media, and the cells were incubated for 48 hours (n=3). The number of viable cells when the PI polyamide conjugate was not added was used as a control (DMSO control). Cell viability was assessed by counting the viable cells with Cell Count Reagent SF (Nacalai tesque, Inc.) and Infinite (registered trademark) 200 PRO multimode reader (TECAN) according to the manufacturer's instructions.

SU/SR cells [7] = conditions: read-out: IC50 value; SU/SR (imatinib-resistant), 48 hours
[8] = system: BCL11A, TRIM24, p21, BAX, PUMA, MDM2, PARP, cleaved caspase-3; assay: Immunoblotting of p53 pathway and apoptosis proteins in MV4-11 cells; format: cell-based, human; conditions: 1 μM, 24 hours
Method: Cells were washed twice with ice cold phosphate-buffered saline (PBS) and harvested in protein lysis buffer [50 mM Tris (pH 7.4), 100 mM NaCl, 0.1 mM EDTA, 1 mM phenylmethylsulfonyl fluoride, 1 mM β-glycerophosphate, 2.5 mM sodium pyrophosphate, 1 mM Na3VO4, lx protease inhibitor (Roche) and PhosSTOP (Roche)]. Whole cell extracts were separated by SDS-polyacrylamide gel electrophoresis (SDS-PAGE) and electrotransferred onto polyvinylidene difluoride membranes. Membranes were probed with the following antibodies: anti-Ctip1 antibody (Abcam, ab19487), anti-TRIM24 antibody (Bethyl Laboratories, Inc), anti-RUNX1 antibody (A-2), anti-GAPDH (FL-335), anti-p21 (C-19), anti-Bax (N-20) antibodies (Santa Cruz Biotechnology, Inc.), anti-RUNX2, anti-RUNX3, anti-p53 antibodies (Cell Signaling Technology), anti-CBFβ antibody (FL-182, Santa Cruz Biotechnology, Inc.), anti-cleaved caspase-3 antibody (5A1E, Cell Signaling Technology), anti-PARP antibody (46D11, Cell Signaling Technology). For secondary antibodies, anti-rabbit IgG, or anti-mosue IgG HRP-linked antibodies (Cell Signaling Technology) were used. Blots were detected using Chemi-Lumi One Super (nacalai tesque, Inc.) and ChemiDoc™ XRS+ Imager (Bio-Rad Laboratories, Inc.), as recommended by the manufacturers. Protein levels were quantified with Image Lab Software (Bio-Rad Laboratories, Inc.).
Briefly, MV4-11 cells were treated with 1 μM Chb-M′ or Chb-50 for 24 hours. The treated cells were dissolved in the protein lysis buffer. Whole cell extracts were resolved by SDS-polyacrylamide gel electrophoresis (SDS-PAGE) and transferred onto polyvinylidene difluoride membranes. The membranes were probed with each antibody. Blots were detected and quantified. As a control, the cells treated with DMSO were used.

Kasumi-1 = assay: cells; conditions: Homo sapiens, Kasumi 1, 48 h, read-out: IC50 (μM) of PRIMA-1 single agent administration
THP-1 = assay: cells; conditions: Homo sapiens, THP-1, 48 h, read-out: IC50 (μM) of PRIMA-1 single agent administration
KG1a = assay: cells; conditions: Homo sapiens, KG-1a, 48 h, read-out: IC50 (μM) of PRIMA-1 single agent administration
HL60 = assay: cells; conditions: Homo sapiens, HL-60, 48 h, read-out: IC50 (μM) of PRIMA-1 single agent administration
MV4-11NR = assay: cells; conditions: Homo sapiens, 48 h, read-out: IC50 (μM) of PRIMA-1 single agent administration
MV4-11 cells = assay: Xenograft AML mouse model (MV4-11); format: in vivo; conditions: NOG mice with MV4-11, day 14
NB4 (p53MT) = assay: cells; conditions: Homo sapiens
UF1 (p53Null) = assay: cells; conditions: Homo sapiens

Structure (SMILES): Cc1ccc(NC(=O)c2ccc(CN3CCN(C)CC3)cc2)cc1Nc1nccc(-c2cccnc2)n1 [imatinib, reference compound]
H&E staining of bone marrow (SU/SR cells [1]): little change | Invasion of liver by transplanted PhALL cells (hCD45 staining) (SU/SR cells [1]): not inhibited | Invasion of spleen by transplanted PhALL cells (hCD45 staining), compared with liver (SU/SR cells [1]): same results | hCD45 staining of bone marrow (human leukemia cells) (SU/SR cells [1]): filled with leukemia cells

Structure (SMILES): O=C(O)CCCc1ccc(N(CCCl)CCCl)cc1 [Chlorambucil]
IC50 [2]: 18.2 µM | IC50 (μM) [3]: Not measurable | IC50 (LNCaP cells): 37.6 µM | IC50 (DU-145 cells): 38.1 µM

Structure (SMILES): COc1cc2ncnc(Nc3ccc(F)c(Cl)c3)c2cc1OCCCN1CCOCC1 [gefitinib, reference compound]
Effect on the lung cancer model (A549 cells; A549 xenograft): did not show effect | H&E staining of lung tissue (lung cancer cells in pulmonary alveoli) (A549 cells; day 14 after transplantation): densely filled with lung cancer cells | Brightness of luciferase (IVIS), lung (A549 cells; day 14 after transplantation, after 2 administrations): increased | Brightness of luciferase (IVIS), lung (A549 cells; day 21 after transplantation, after total 4 administrations): increased

Structure (SMILES): CN(C)CCCNC(=O)c1nc(NC(=O)c2nc(NC(=O)c3cc(NC(=O)c4nc(NC(=O)CCCNC(=O)c5cc(NC(=O)c6nc(NC(=O)c7cc(NC(=O)c8cc(NC(=O)CCNC(=O)CCCc9ccc(N(CCCl)CCCl)cc9)cn8C)cn7C)cn6C)cn5C)cn4C)cn3C)cn2C)cn1C [Chb-50]
Gene expression pattern vs cells with all RUNX family members knockdown [4]: significantly correlated | IC50 compared with that of imatinib (SU-Ph2 cells): lower IC50 values | Gene expressions of p53 suppressors BCL11A and TRIM24 [5]: down-regulated | mRNA expression level of p53 [5]: unchanged | mRNA expression levels of p21 and PUMA [5]: increased | Expressions of RUNX1 target genes (IL3, CSF2, and CSF2RB), mRNA (IL3, CSF2 and CSF2RB): effectively inhibited | Growth inhibition of AML cells [6]: highly effective | IC50 (SU/SR cells [7]): 1.42 µM | Cleaved form of PARP and cleaved caspase-3 (apoptosis) [8]: emergence | Protein expression levels of p53 and downstream proteins (p21, BAX) [8]: increased | Protein expression levels of suppressors of p53 (BCL11A and TRIM24) [8]: reduced

Structure (SMILES): O=C1C2CCN(CC2)C1(CO)CO [PRIMA-1, 2,2-bis(hydroxymethyl)-1-azabicyclo[2.2.2]octan-3-one]
IC50 (Kasumi-1): 7.03 µM | IC50 (THP-1): 6 µM | IC50 (KG1a): > 100 µM | IC50 (HL60): 5.74 µM | IC50 (MV4-11NR): 5.5 µM

Structure (SMILES): Nc1ccn([C@@H]2O[C@H](CO)[C@@H](O)[C@@H]2O)c(=O)n1 [cytarabine, reference compound]
H&E staining of bone marrow (MV4-11 cells): little change | hCD45 staining of bone marrow (human leukemia cells) (MV4-11 cells): filled with leukemia cells

IC50 (NB4 (p53MT); 48 h): 75.7 µM | IC50 (NB4 (p53MT); 72 h): 60.1 µM | IC50 (UF1 (p53Null); 48 h): 12.4 µM | IC50 (UF1 (p53Null); 72 h): 10.3 µM
Structure (SMILES): CC1=C(/C=C/C(C)=C/C=C/C(C)=C/C(=O)O)C(C)(C)CCC1 [ATRA, all-trans-retinoic acid]

— patent publication US11235001B2, “RUNX inhibitor” (KYOTO UNIVERSITY, priority 2016, dated 2022)
